Source: patent publication US4923865A, “Substituted 1-(1H-imidazol-4-yl)alkyl-benzamides as anti-ischemics and as alpha-2-adrenergic receptor agonists” (U C B Societe Anonyme, priority 1988, dated 1990)

Columns and labels:
male NMRI mice = experiment: Toxicity, Irwin's test (lethal dose); assay type: in vivo; details: intraperitoneal
Procedure: 5. Toxicity. The toxicity of the compounds according to the present invention has been determined in male NMRI mice by means of Irwin's test (S. IRWIN, Psychopharmacologia, 13, (1968), 222-257).
Progressive doses of the test compound are administered intraperitoneally to groups of three mice until the lethal dose is reached (dose causing the death of two out of three animals within 48 hours). In Table IX below, the lethal dose in mg/kg found for the compounds of the invention is given. It can be seen from this Table that the compounds of the invention are not very toxic.

α2 -adrenergic receptors = molecular target: T1, α2 -adrenergic receptors (Rattus norvegicus, UniProt P22909); experiment: Competitive binding assay with [^3 H]clonidine on rat brain membranes; details: 30 minutes incubation, read-out: IC50 (50% inhibition of the binding of [^3 H]clonidine)
T1 construct: three different preparations of rat brain membranes; from tissue; host or cells: rat brain membranes
T1 sequence (P22909 1-465): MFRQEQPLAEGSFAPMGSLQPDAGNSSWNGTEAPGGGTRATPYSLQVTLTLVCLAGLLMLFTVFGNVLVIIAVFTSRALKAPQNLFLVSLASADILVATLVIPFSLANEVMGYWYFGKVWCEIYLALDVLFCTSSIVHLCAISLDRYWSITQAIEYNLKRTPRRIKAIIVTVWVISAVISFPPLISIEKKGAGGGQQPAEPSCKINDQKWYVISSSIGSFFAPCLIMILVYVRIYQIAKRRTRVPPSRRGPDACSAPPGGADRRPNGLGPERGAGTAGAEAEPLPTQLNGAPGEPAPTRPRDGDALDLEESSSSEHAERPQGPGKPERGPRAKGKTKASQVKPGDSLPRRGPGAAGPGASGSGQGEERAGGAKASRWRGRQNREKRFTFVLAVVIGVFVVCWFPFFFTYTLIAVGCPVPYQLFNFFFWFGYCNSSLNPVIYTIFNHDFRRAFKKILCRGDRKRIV
From the text: (a) Competitive binding assay with a radioligand. The object of competitive binding assays is to measure the affinity of the compounds of the invention for α2 -adrenoceptors. These conventional experiments involve the competition for binding to α2 -adrenergic receptors between the tested compound on the one hand, and on the other hand, a radioligand which, in this particular case of α2 -adrenergic receptors, is the [^3 H]clonidine which is known to be a specific α2 -adrenergic agonist.
The method used is that of D. C. U'PRICHARD et al., Mol. Pharmacol. 13, (1977), 454-473.
The displacement curves for binding of [^3 H]clonidine have been determined with nine concentrations of compound A, ranging from 10^-4 to 10^-10 mole/l, and with three different preparations of rat brain membranes. The samples were incubated for 30 minutes, and then filtered under reduced pressure using a Whatman GF/B filter. The filters are washed three times with 5 ml of Tris-HCl buffer (pH 7.5 at 0° C.) and then dried for one minute. The radioactivity is measured in an Econofluor (-NEN Corp.) medium. The [^3 H]clonidine (25.5 Ci/mmole) used is provided by Amersham.
The affinity of compound A for the α2 -adrenergic receptors has been calculated from the displacement curves of the [^3 H]clonidine. […]

cerebral ischemia = experiment: Unilateral, multifocal cerebral ischemia in the rat (microsphere embolization); assay type: in vivo, male Sprague-Dawley SPF rats
From the text: (b) Unilateral, multifocal cerebral ischemia in the rat. In awake, male Sprague-Dawley SPF rats, aged from 8 to 9 months, a permanent, unilateral cerebral ischemia (or embolization) is caused by introduction of 2000 microspheres (provided by 3M, St. Paul, U.S.A.; diameter 58±2 μm) into the right carotid stream (A. M. BRALET et al., Stroke, 10, (1979), 34-38; M. LE PONCIN-LAFITTE et al., Pathol. Biol. (Paris), 30, (1982), 289-293) after the permanent ligature of the right pterygopalatine artery (Y. KIYOTA et al., Pharmacol. Biochem. Behav. 24, (1986), 687-692).
The compound to be studied is administered for the first time 30 minutes before, and for the second time 30 minutes after embolization, while the control animals receive only a physiological salt solution. The animals are then allowed to rest. After 6 days of recovery, the surviving animals are measured for:
(1) the residual neurological deficit obtained from the test of posture and gait of the animals (Test A, maximum score: 4 points). This test evaluates:
(a) abnormal positioning of the hind paws (S. IRWIN, Psychophamacologia (Berlin), 13, (1968), 222-257);
(b) contralateral inclination of the body during locomotion;
(c) homolateral longitudinal flexion of the body, and
(d) abnormal gait (B. KOLB et al., loc. cit.).
(2) The sensorimotor functions (spontaneous motility, grasping reflex, placing reactions both visual and by loss of support (Test B, maximum score: 10 points); (C. CAPDEVILLE et al., loc. cit.).
(3) The lateralized sensorimotor response (on the contralateral side) (Test C, maximum score: 3 points). This is evaluated by combining the measurements of visual placing reflex, head orientation relfex towards a lateral sensory stimulus, and the cutaneous plantar reflex (C. CAPDEVILLE et al., loc. cit.; J. F. MARSHALL et al., Science (Washington), 174, (1971), 523-525).
(4) Tactile extinction on the left side (Test D, maximum score: 300 points). By contrast with the other tests mentioned above, for which the deficit is lower when the score is higher, the deficit is here more pronounced when the score approaches 300 (T. SCHALLERT et al., Pharmacol. Biochem. Behav. 16, (1982), 455-462).
On the seventh day of recovery, the edema present in various ipsilateral cerebral structures is also measured (M. LE PONCIN-LAFITTE et al., loc. cit.).
Table IV gives the results obtained in tests A to D for compound A, administered intraperitoneally at the dose of 0.76 μg/kg (3.2 nmoles/kg), i.e. The mean of the neurological scores determined for the whole group of surviving animals of the control group and of the treated group after 6 days of recovery. Also indicated in the Table is the mean variation (in g) of body weight measured on the 7th day of recovery. The statistical significant (P) of the difference between the mean values calculated for the control animals and for the treated animals is evaluated by the Mann-Whitney test.
In Table V, the quantity of water (as an average of the percentage) retained in various ipsilateral cerebral structures in the control animals and in the treated animals surviving at the 7th day after embolization, is indicated.

Question: How did the “lethal dose (death of two out of three animals within 48 hours)” value (male NMRI mice) turn out when Cl.NC(=O)c1cccc(Cc2c[nH]cn2)c1O [A, 2-hydroxyl-3-[(1H-imidazol-4-yl)methyl]-benzamide hydrochloride] was run?
Answer: 760 mg/kg

Question: And the IC50 (α2 -adrenergic receptors)?
Answer: 8.9 nM

Question: And the weight variation (cerebral ischemia; 0.76 μg/kg i.p., 7th day of recovery, control -5.7, P <0.05)?
Answer: +0.8 g

Question: And the “Mean neurological score 6 days after embolization, test C” value (cerebral ischemia; 0.76 μg/kg i.p., lateralized sensorimotor response, maximum 3 points, control 1.0, P <0.005)?
Answer: 2.0

Question: And the “Mean neurological score 6 days after embolization, test A” value (cerebral ischemia; 0.76 μg/kg i.p., posture and gait, maximum 4 points, control 1.0, P <0.01)?
Answer: 2.0

Question: And the “Mean neurological score 6 days after embolization, test B” value (cerebral ischemia; 0.76 μg/kg i.p., sensorimotor functions, maximum 10 points, control 7.3, P <0.05)?
Answer: 8.0

Question: And the “Mean neurological score 6 days after embolization, test D” value (cerebral ischemia; 0.76 μg/kg i.p., tactile extinction, maximum 300 points, higher = greater deficit, control 243, P <0.05)?
Answer: 96

Question: What about the “Quantity of water in ipsilateral diencephalon” value (cerebral ischemia; 7th day after embolization, control 77.04, P < 0.05) of the same compound?
Answer: 76.32 average %

Question: What about the “Quantity of water in ipsilateral hippocampus” value (cerebral ischemia; 7th day after embolization, control 80.20, P < 0.05) of the same compound?
Answer: 79.79 average %

Question: And the “Quantity of water in ipsilateral cortex” value (cerebral ischemia; 7th day after embolization, control 81.33, P < 0.01)?
Answer: 80.36 average %

Question: And the “Quantity of water in ipsilateral corpus striatum” value (cerebral ischemia; 7th day after embolization, control 81.57, P < 0.005)?
Answer: 80.05 average %
